{"source": "patent US11078467B2", "about": "(University of Florida Research Foundation, Incorporated, priority 2016, dated 2021)", "key": {"TxtE [1]": {"target": "T1, TxtE (Streptomyces scabiei, UniProt C9ZDC6)", "experiment": "biochemical", "assay_type": "binding, S. scabies", "parameters": "inferred from Ni-NTA purification and the pET28b vector; made in house; host or cells: E. coli BL21 (DE3)-GOLD, pET28b", "settings": "for Interaction with TxtE in spectroscopic analysis (in words): Type I spectral shift", "experimental": "(§1) The ferric heme of enzymes was then saturated with carbon monoxide (Airgas) through bubbling and the spectra of the saturated enzyme solutions were recorded. Immediately, sodium dithionite solution (30 μL, 0.5 M) was added to reduce ferric ion, and reduced spectra were taken subsequently. CO reduced difference spectra of all enzymes were created by subtracting the CO binding spectra from the reduced spectra. Data were further analyzed by Excel. […] Not more than 10 μl of substrate stock solutions prepared in the above buffer were added to the sample cuvette with an interval of 0.5 μl, and the spectra were recorded from 300 nm to 500 nm each time. The equal volume of buffer was added to the reference cuvette. The changes in absorbance (AA) were determined by subtracting the absorbance at ˜420 nm from that at ˜390 nm. Data were then fitted to the equation of ΔA=ΔAmax[L]/(Kd+[L]) using GraphPad Prism 4."}, "TB14 [2]": {"target": "T2, TB14 (UniProt C9ZDC6+P14779)", "T2 construct": "14-aa linker […]; BM3R, reductase domain of P450BM3 (CYP102A1), fusion partner after the linker; inferred from Ni-NTA purification and the pET28b vector; made in house; host or cells: E. coli BL21 (DE3)-GOLD, pET28b-TxtE-BM3R", "experiment": "Binding affinities of Trp analogues toward TB14 (spectral shift titration)", "settings": "for Kd: read-out: TB14 Kd, 1.5 μM enzyme, 25 mM Tris-HCl, pH 8.0; for Interaction with TB14 in spectroscopic analysis (in words): Type I spectral shift", "experimental": "as §1"}, "TxtE [3]": {"target": "T1, TxtE", "assay_type": "biochemical, S. scabies", "parameters": "inferred from Ni-NTA purification and the pET28b vector; made in house", "settings": "0.5 mM substrate, 45 min, FIG. 8", "experimental": "(§2) The reactions were prepared and then incubated at 20° C., 300 rpm for 45 minutes. All experiments were repeated at least three times.\n(§3) After centrifugation, 10 μl solutions were analyzed by HPLC. […] All reactions were independently repeated at least three times. […] All experiments were performed at least in triplicate."}, "TB14 [4]": {"target": "T2, TB14", "experiment": "Nitration of Trp and its analogues by TB14 (45 min, HPLC)", "assay_type": "biochemical", "settings": "FIG. 8; for Nitration activity of TB14 toward the substrate (in words): 0.5 mM substrate, 45 min", "experimental": "as §2, §3"}, "TB14 [5]": {"target": "T3, TB14 (UniProt C9ZDC6)", "T3 construct": "14-aa linker […]; BM3R, reductase domain of P450BM3 (CYP102A1), fusion partner after the linker; inferred from Ni-NTA purification and the pET28b vector; made in house; host or cells: E. coli BL21 (DE3)-GOLD, pET28b-TxtE-BM3R", "experiment": "Binding affinities of Trp analogues toward TB14 (spectral shift titration)", "settings": "1.5 μM enzyme, 25 mM Tris-HCl, pH 8.0", "experimental": "as §1"}, "[6]": {"settings": "read-out: TxtE Kd, 1.5 μM enzyme, 25 mM Tris-HCl, pH 8.0"}}, "note": "Entries after “also recorded” stand apart in the source; their conditions may differ. Like-named read-outs stand apart in the source and are kept apart here."}
{"smiles": "NC(Cc1c[nH]c2cccc(F)c12)C(=O)O", "note": "(racemic) [Example 4-F-Trp, 4-F-DL-Trp]", "values": [{"measurement": "Kd", "setting": "TxtE [1]; [6]", "value": "189 ± 11.1", "unit": "µM"}, {"measurement": "Kd", "setting": "TB14 [2]", "value": "175 ± 12.9", "unit": "µM"}]}
{"smiles": "Cc1cccc2[nH]cc(CC(N)C(=O)O)c12", "note": "(racemic) [Example 4-Me-DL-Trp]", "values": [{"measurement": "Nitration activity of TxtE toward the substrate (in words)", "setting": "TxtE [3]", "value": "good activity"}, {"measurement": "Interaction with TxtE in spectroscopic analysis (in words)", "setting": "TxtE [1]", "value": "more tightly than 4-F-DL-Trp"}, {"measurement": "Interaction with TB14 in spectroscopic analysis (in words)", "setting": "TB14 [2]", "value": "more tightly than 4-F-DL-Trp"}, {"measurement": "Nitration activity of TB14 toward the substrate (in words)", "setting": "TB14 [4]", "value": "good activity"}, {"measurement": "Nitration by TB14 favoured over 4-F-DL-Trp", "setting": "TB14 [4]", "value": "about 8 times"}]}
{"smiles": "Cc1cccc2[nH]cc(CC(N)C(=O)O)c12", "note": "(racemic) [Example 4-Me-Tr, 4-Me-DL-Tryptophan]", "values": [{"measurement": "Kd", "setting": "TxtE [1]", "value": "9.58 ± 0.36", "unit": "µM"}, {"measurement": "Kd", "setting": "TB14 [5]", "value": "13.5 ± 0.98", "unit": "µM"}]}
{"smiles": "Cc1ccc2[nH]cc(CC(N)C(=O)O)c2c1", "note": "(racemic) [Example 5-Me-Trp, 5-Me-DL-Trp]", "values": [{"measurement": "Nitration activity of TxtE toward the substrate (in words)", "setting": "TxtE [3]", "value": "good activity"}, {"measurement": "Kd", "setting": "TxtE [1]", "value": "34.7 ± 0.99", "unit": "µM"}, {"measurement": "Kd", "setting": "TB14 [5]", "value": "29.9 ± 1.03", "unit": "µM"}, {"measurement": "Nitration activity of TB14 toward the substrate (in words)", "setting": "TB14 [4]", "value": "good activity"}]}
{"smiles": "COc1ccc2[nH]cc(CC(N)C(=O)O)c2c1", "note": "(racemic) [Example 5-MeO-Trp, 5-MeO-DL-Trp]", "values": [{"measurement": "Kd", "setting": "TxtE [1]", "value": "29.1 ± 1.16", "unit": "µM"}, {"measurement": "Kd", "setting": "TB14 [5]", "value": "25.8 ± 1.84", "unit": "µM"}]}
{"smiles": "N[C@@H](Cc1c[nH]c2cc(F)ccc12)C(=O)O", "note": "(racemic) [Example 6-F-Trp, 6-F-DL-Trp]", "values": [{"measurement": "Nitration activity of TxtE toward the substrate (in words)", "setting": "TxtE [3]", "value": "good activity"}, {"measurement": "Kd", "setting": "TxtE [1]; [6]", "value": "73.4 ± 6.06", "unit": "µM"}, {"measurement": "Kd", "setting": "TB14 [2]", "value": "65.3 ± 4.49", "unit": "µM"}, {"measurement": "Nitration activity of TB14 toward the substrate (in words)", "setting": "TB14 [4]", "value": "good activity"}]}
{"smiles": "Cc1cccc2c(CC(N)C(=O)O)c[nH]c12", "note": "(racemic) [Example 7-Me-Trp, 7-Me-DL-Trp]", "values": [{"measurement": "Kd", "setting": "TxtE [1]", "value": "12.9 ± 0.99", "unit": "µM"}, {"measurement": "Kd", "setting": "TB14 [5]", "value": "10.6 ± 0.75", "unit": "µM"}]}
{"smiles": "CC(N)(Cc1c[nH]c2ccccc12)C(=O)O", "note": "(racemic) [α-Me-Trp, α-Me-DL-Trp]", "values": [{"measurement": "Kd", "setting": "TxtE [1]", "value": "100 ± 4.3", "unit": "µM"}, {"measurement": "Kd", "setting": "TB14 [5]", "value": "94.7 ± 8.52", "unit": "µM"}]}
{"smiles": "O=C(O)C1Cc2c([nH]c3ccccc23)CN1", "note": "(stereo not drawn) [2,3,4,9-Tetrahydro-1H-β-carboline-3-carboxynate]", "values": [{"measurement": "Kd", "setting": "TxtE [1]", "value": "579 ± 44.4", "unit": "µM"}, {"measurement": "Kd", "setting": "TB14 [5]", "value": "731 ± 86", "unit": "µM"}]}
{"smiles": "O=C(O)Cc1c[nH]c2ccccc12", "note": "[3-Indoleacetic acid]", "values": [{"measurement": "Kd", "setting": "TxtE [1]", "value": "> 17000", "unit": "µM"}]}
{"smiles": "N[C@@H](Cc1c[nH]c2ncccc12)C(=O)O", "note": "[7-Azatryptophan]", "values": [{"measurement": "Kd", "setting": "TxtE [1]; [6]", "value": "16.8 ± 0.28", "unit": "µM"}, {"measurement": "Kd", "setting": "TB14 [5]", "value": "25.5 ± 0.58", "unit": "µM"}]}
{"smiles": "N[C@H](Cc1c[nH]c2ccccc12)C(=O)O", "note": "[D-Trp]", "values": [{"measurement": "Kd", "setting": "TxtE [1]", "value": "432 ± 17.2", "unit": "µM"}, {"measurement": "Kd", "setting": "TB14 [5]", "value": "470 ± 25.3", "unit": "µM"}]}
{"smiles": "N[C@@H](Cc1c[nH]c2ccc(F)cc12)C(=O)O", "note": "[Example 5-F-L-Trp, 5-F-L-Trp]", "values": [{"measurement": "Nitration activity of TxtE toward the substrate (in words)", "setting": "TxtE [3]", "value": "good activity; also recorded: best substrate of TxtE"}, {"measurement": "Kd", "setting": "TxtE [1]; [6]", "value": "84.2 ± 4.37", "unit": "µM"}, {"measurement": "Kd", "setting": "TB14 [2]", "value": "77.5 ± 5.74", "unit": "µM"}, {"measurement": "Nitration activity of TB14 toward the substrate (in words)", "setting": "TB14 [4]", "value": "good activity; also recorded: comparable to Trp"}]}
{"smiles": "N[C@@H](Cc1c[nH]c2ccc(O)cc12)C(=O)O", "note": "[Example 5-OH-L-Trp, 5-OH-L-Trp]", "values": [{"measurement": "Kd", "setting": "TxtE [1]", "value": "341 ± 26.4", "unit": "µM"}, {"measurement": "Kd", "setting": "TB14 [5]", "value": "453 ± 15.5", "unit": "µM"}]}
{"smiles": "O=C(O)c1c[nH]c2ccccc12", "note": "[Indole-3-carboxylic acid]", "values": [{"measurement": "Kd", "setting": "TxtE [1]", "value": "> 9000", "unit": "µM"}]}
{"smiles": "O=C(O)C(O)Cc1c[nH]c2ccccc12", "note": "(stereo not shown) [Indole-3-lactic acid]", "values": [{"measurement": "Kd", "setting": "TxtE [1]", "value": "> 7000", "unit": "µM"}]}
{"smiles": "O=C(O)C(=O)Cc1c[nH]c2ccccc12", "note": "[Indole-3-pyruvic acid]", "values": [{"measurement": "Kd", "setting": "TxtE [1]; [6]", "value": "386 ± 42.5", "unit": "µM"}, {"measurement": "Kd", "setting": "TB14 [2]", "value": "478 ± 31.6", "unit": "µM"}]}
{"smiles": "N[C@@H](Cc1c[nH]c2ccccc12)C(=O)O", "note": "[L-Trp, L-tryptophan]", "values": [{"measurement": "Kd", "setting": "TxtE [1]; [6]", "value": "24.8 ± 1.11", "unit": "µM"}, {"measurement": "Kd", "setting": "TB14 [5]", "value": "17.4 ± 0.95", "unit": "µM"}]}
{"smiles": "N[C@H](CO)Cc1c[nH]c2ccccc12", "note": "[L-tryptophanol]", "values": [{"measurement": "Kd", "setting": "TxtE [1]", "value": "221 ± 32.4", "unit": "µM"}, {"measurement": "Kd", "setting": "TB14 [5]", "value": "280 ± 43.2", "unit": "µM"}]}
{"smiles": "NCCc1c[nH]c2ccc(O)cc12", "note": "[Serotonin]", "values": [{"measurement": "Kd", "setting": "TxtE [1]; [6]", "value": "322 ± 31.4", "unit": "µM"}, {"measurement": "Kd", "setting": "TB14 [2]", "value": "310 ± 38.5", "unit": "µM"}]}
{"smiles": "N[C@@H](Cc1c[nH]c2ccccc12)C(=O)O", "note": "[Trp]", "values": [{"measurement": "Nitration activity of TxtE toward the substrate (in words)", "setting": "TxtE [3]", "value": "nitrated"}, {"measurement": "Nitration activity of TB14 toward the substrate (in words)", "setting": "TB14 [4]", "value": "nitrated"}]}
{"smiles": "NCCc1c[nH]c2ccccc12", "note": "[Tryptamine]", "values": [{"measurement": "Kd", "setting": "TxtE [1]; [6]", "value": "68.4 ± 6.19", "unit": "µM"}, {"measurement": "Kd", "setting": "TB14 [2]", "value": "59.8 ± 7.88", "unit": "µM"}]}
{"smiles": "c1ccc2[nH]ccc2c1", "note": "[indole]", "values": [{"measurement": "Interaction with TxtE in spectroscopic analysis (in words)", "setting": "TxtE [1]", "value": "no detectable level of interaction"}, {"measurement": "Interaction with TB14 in spectroscopic analysis (in words)", "setting": "TB14 [2]", "value": "no detectable level of interaction"}]}
